Test results from patent US9650389B2, “8-oxoprotoberberine derivative or pharmaceutically acceptable salt thereof, preparation method therefor and pharmaceutical composition for preventing or treating diseases associated with activity of NFAT5, containing same as active ingredient” (Korea Research Institute of Chemical Technology, priority 2013, dated 2017).

Legend:
[1] = Cytotoxicity test (WST-8), L929; assay type: cell-based; conditions: mouse, L929 fibroblast cells (NCTC clone 929); L929, 24 hours
Description: (§1) To investigate the cytotoxicity of the derivative of the present invention, 5 kinds of cell lines (VERO: African green monkey kidney cell line, HFL-1: human embryonic lung cell line, L929: NCTC clone 929, mouse fibroblast cell line, NIH 3T3: mouse embryonic fibroblast cell line, and CHO-K1: Chinese hamster ovary cell line) were distributed in a 96-well plate at the density of 1×10^4 cells/well, which were treated with the compound of the present invention for 24 hours. The water-soluble tetrazolium salt WST-8 was added thereto. The orange colored formazan dye degraded by dehydrogenase in the live cells was read, followed by nonlinear regression to determine 50% growth inhibition concentration.

NFATc = assay: NFAT (NFATc) transcriptional activity, THP1-XBlue-MD2-CD14 cells, SEAP; assay type: cell-based; conditions: LPS 1 μg/ml, 24 hours, FIG. 2B
Description: To evaluate the transcriptional activity of NFAT, THP1-XBlue-MD2-CD14 cells were cultured in 10% FBS-RPMI (supplemented with 200 μg/ml of Zeocin and 250 μg/ml of G418). First, the cells were distributed in a 96-well plate at the density of 2×10^4 cells/well, followed by culture. 1 μg/ml of LPS and the compound of the invention were added thereto, followed by culture for 24 hours. 20 μl of the supernatant was added with 180 μl of secreted embryonic alkaline phosphatase (SEAP) detection medium, followed by culture for 2 hours. Then, OD655 was measured.

[2] = Cytotoxicity test (WST-8), VERO; assay type: cell-based; conditions: African green monkey, VERO kidney cells
Description: as §1

[3] = Metabolic stability in rat liver microsomes; assay type: in vitro ADME; conditions: rat liver microsome fractions, 30 minutes
Description: (§2) Particularly, each compound was added to rat and human liver microsome fractions, followed by culture for 30 minutes. Each compound was administered via intravenous injection (iv) and oral-administration (po) to rat at the concentration of 5 mg/kg, followed by making pharmacokinetic profiles.

NFAT5 = target: T1, NFAT5 (Mus musculus, UniProt Q9WV30); assay: NFAT5 reporter screening (GFP, HCS) in LPS-treated Raw264.7 cells; assay type: cell-based; conditions: for Inhibition rate of NFAT5 transcription (%): Raw264.7 reporter, LPS 1 μg/ml, 48 hours
T1 construct: endogenous in cells; host or cells: RAW264.7
Description: To investigate whether or not the derivative of the present invention could inhibit the transcriptional activity of NFAT5, NFAT5 reporter screening was performed. A plasmid vector was constructed by eliminating CMV promoter sequence from the backbone and inserting NFAT5 binding site sequence ([…]) instead. Raw264.7 cells transfected with the vector were cultured in 10% FBS-PRMI (supplemented with 500 μg/ml G418). The cells were distributed in a 96-well plate at the density of 3×10^3 cells/well, followed by further culture for one more day. The cells were treated with LPS at the concentration of 1 μg/ml for 48 hours. Then, the cells were fixed and the expression level of GFP was measured by HCS fluorescence image (Thermo, ArrayScan^VTI).

[4] = Metabolic stability in human liver microsomes; assay type: in vitro ADME; conditions: human liver microsome fractions, 30 minutes
Description: as §2

[5] = Cytotoxicity test (WST-8), CHO-K1; assay type: cell-based; conditions: Chinese hamster, CHO-K1 ovary cells; CHO-K1, 24 hours
Description: as §1

[6] = Cytotoxicity test (WST-8), HFL-1; assay type: cell-based; conditions: human, HFL-1 embryonic lung cells; HFL-1, 24 hours
Description: as §1

[7] = Cytotoxicity test (WST-8), NIH 3T3; assay type: cell-based; conditions: mouse, NIH 3T3 embryonic fibroblast cells; NIN3T3, 24 hours
Description: as §1

iNOS = assay: Inhibition of LPS-induced iNOS induction in Raw264.7 cells (Griess reagent); assay type: cell-based; conditions: Mus musculus, Raw264.7, LPS 100 ng/ml, 24 hours, read-out: Inhibition rate of iNOS induction (%)
Description: To investigate whether or not the derivative of the present invention could inhibit iNOS inducement, Raw264.7 cells (mouse macrophages) were distributed in a 384-well plate at the density of 3×10^4 cells/well. The cells were treated with LPS at the concentration of 100 ng/ml, followed by culture at 37° C. for 24 hours. The concentration of […] increased in the medium was measured by using Griess reagent. The inhibition rate was calculated by mathematical formula based on the detected signals. The results are shown in Table 2. % inhibition=(mean value of sample−mean value of negative control)/(mean value of positive control −mean value of negative control)×100 [Mathematical Formula 1]

T1 sequence (Q9WV30 whole entry): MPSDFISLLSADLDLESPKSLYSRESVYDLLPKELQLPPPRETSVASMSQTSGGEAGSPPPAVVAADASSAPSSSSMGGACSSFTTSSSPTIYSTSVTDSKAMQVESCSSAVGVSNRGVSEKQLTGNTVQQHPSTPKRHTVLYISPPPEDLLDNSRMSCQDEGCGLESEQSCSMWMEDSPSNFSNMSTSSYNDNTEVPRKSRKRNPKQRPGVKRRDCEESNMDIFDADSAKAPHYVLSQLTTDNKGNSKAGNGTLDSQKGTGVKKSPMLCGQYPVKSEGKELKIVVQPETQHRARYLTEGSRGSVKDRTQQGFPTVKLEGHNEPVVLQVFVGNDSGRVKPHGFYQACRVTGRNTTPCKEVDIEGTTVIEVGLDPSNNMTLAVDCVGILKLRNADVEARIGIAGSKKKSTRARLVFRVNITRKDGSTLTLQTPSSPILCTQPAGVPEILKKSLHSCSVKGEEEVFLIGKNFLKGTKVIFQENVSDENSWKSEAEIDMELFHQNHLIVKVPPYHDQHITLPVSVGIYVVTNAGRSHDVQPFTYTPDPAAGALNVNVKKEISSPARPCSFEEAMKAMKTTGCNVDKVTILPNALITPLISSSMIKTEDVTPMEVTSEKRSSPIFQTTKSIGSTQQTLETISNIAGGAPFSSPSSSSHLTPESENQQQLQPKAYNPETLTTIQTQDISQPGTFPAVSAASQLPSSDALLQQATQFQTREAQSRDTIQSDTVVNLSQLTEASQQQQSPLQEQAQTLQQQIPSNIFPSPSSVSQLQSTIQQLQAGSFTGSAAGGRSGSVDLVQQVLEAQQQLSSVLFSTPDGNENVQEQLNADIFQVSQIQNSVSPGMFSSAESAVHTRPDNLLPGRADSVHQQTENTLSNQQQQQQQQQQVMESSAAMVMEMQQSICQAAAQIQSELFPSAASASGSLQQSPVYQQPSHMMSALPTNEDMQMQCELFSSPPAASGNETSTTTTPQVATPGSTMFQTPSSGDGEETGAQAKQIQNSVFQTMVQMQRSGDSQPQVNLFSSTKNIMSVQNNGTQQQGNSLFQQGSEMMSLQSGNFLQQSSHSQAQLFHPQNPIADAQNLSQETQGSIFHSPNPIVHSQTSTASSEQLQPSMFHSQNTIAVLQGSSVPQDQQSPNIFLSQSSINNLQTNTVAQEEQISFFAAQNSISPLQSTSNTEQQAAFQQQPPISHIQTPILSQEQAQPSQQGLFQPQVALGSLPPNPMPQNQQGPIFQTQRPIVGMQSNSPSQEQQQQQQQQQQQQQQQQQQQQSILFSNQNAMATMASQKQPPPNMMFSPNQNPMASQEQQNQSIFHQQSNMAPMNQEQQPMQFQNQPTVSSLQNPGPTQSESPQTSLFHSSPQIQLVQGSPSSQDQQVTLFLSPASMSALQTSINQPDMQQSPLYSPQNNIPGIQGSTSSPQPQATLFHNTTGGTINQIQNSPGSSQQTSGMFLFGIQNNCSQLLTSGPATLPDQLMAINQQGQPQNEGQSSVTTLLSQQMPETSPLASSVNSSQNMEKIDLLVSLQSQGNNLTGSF

Q: With `COc1ccc2c(Cc3c(F)cccc3F)c3n(c(=O)c2c1OC)CCc1cc2c(cc1-3)OCO2` [Example 3, 13-(2,6-difluorobenzyl)-9,10-dimethoxy-5H-[1,3]dioxolo[4,5-g]isoquinolino[3,2-a]isoquinoline-8(6H)-one] as the molecule, how does the GI50 at 24 h [1] read?
A: 47.7 µM

Q: And the “inhibition of NFAT promoter / transcriptional activity (in words)” value (NFATc)?
A: slightly

Q: And the GI50 at 24 h [2]?
A: 84.9 µM

Q: What about the “remaining compound, Rat (%)” value [3] of the same molecule?
A: 18.5 ± 5.2%

Q: What about the “Inhibition rate of NFAT5 transcription (%)” value (NFAT5; 1 μM) of the same molecule?
A: 24.6%

Q: What about the “Inhibition rate of NFAT5 transcription (%)” value (NFAT5; 10 μM) of the same molecule?
A: 108.8%

Q: And the “inhibiting NFAT5 activity (in words)” value (NFAT5; Table 3 and FIG. 1)?
A: remarkably excellent in inhibiting NFAT5 activity

Q: And the “remaining compound, Human (%)” value [4]?
A: 63.7 ± 2.4%

Q: What about the GI50 at 24 h [5] of the same molecule?
A: 16.7 µM

Q: What about the GI50 at 24 h [6] of the same molecule?
A: 32.8 µM

Q: And the GI50 at 24 h [7]?
A: 10.2 µM

Q: And the inhibition at 1 µM (iNOS; 1 μM)?
A: 74.1%

Q: What about the inhibition at 10 µM (iNOS; 10 μM) of the same molecule?
A: 113%

Q: With `O=C1CC2(CCCC2)CC(=O)N1CCCCN1CCN(c2ncccn2)CC1` [buspirione, reference compound] as the molecule, how does the “remaining compound, Rat (%)” value [3] read?
A: 0.82 ± 0.16%

Q: And the “remaining compound, Human (%)” value [4]?
A: 3.88 ± 0.24%
